Data published in publication PMC3914206.

Experiments:
Format in all cases: binding
Design in all cases: KINOMEscan: ABL1(F317L)-phosphorylated / KINOMEscan: ABL1(H396P)-nonphosphorylated / KINOMEscan: ABL1(H396P)-phosphorylated / KINOMEscan: ABL1(M351T)-phosphorylated / KINOMEscan: ABL1(T315I)-phosphorylated / KINOMEscan: ABL1-nonphosphorylated / KINOMEscan: ABL1-phosphorylated / KINOMEscan: ACVR2A / KINOMEscan: ACVR2B / KINOMEscan: ADCK3 / KINOMEscan: ADCK4 / KINOMEscan: AKT1 / KINOMEscan: AKT3 / KINOMEscan: ALK / KINOMEscan: ARK5 / KINOMEscan: AURKA / KINOMEscan: AURKC / KINOMEscan: BIKE / KINOMEscan: BMPR1A / KINOMEscan: BMPR1B / KINOMEscan: BMX / KINOMEscan: BRK / KINOMEscan: BRSK1 / KINOMEscan: BRSK2 / KINOMEscan: CAMK1 / KINOMEscan: CAMK1D / KINOMEscan: CAMK1G / KINOMEscan: CAMK2A / KINOMEscan: CAMK2B / KINOMEscan: AAK1 / KINOMEscan: CAMK2D / KINOMEscan: CAMK2G / KINOMEscan: ABL1(F317I)-nonphosphorylated / KINOMEscan: ABL1(F317I)-phosphorylated / KINOMEscan: ABL1(F317L)-nonphosphorylated: unit: % Ctrl
Conditions in all cases: Compound Concentration 10 µM
[1] = target: T1, panel of 442 kinases (Homo sapiens, UniProt Q9Y6M4)
T1 construct: purchased KINOMEscan
T1 sequence (Q9Y6M4 whole entry): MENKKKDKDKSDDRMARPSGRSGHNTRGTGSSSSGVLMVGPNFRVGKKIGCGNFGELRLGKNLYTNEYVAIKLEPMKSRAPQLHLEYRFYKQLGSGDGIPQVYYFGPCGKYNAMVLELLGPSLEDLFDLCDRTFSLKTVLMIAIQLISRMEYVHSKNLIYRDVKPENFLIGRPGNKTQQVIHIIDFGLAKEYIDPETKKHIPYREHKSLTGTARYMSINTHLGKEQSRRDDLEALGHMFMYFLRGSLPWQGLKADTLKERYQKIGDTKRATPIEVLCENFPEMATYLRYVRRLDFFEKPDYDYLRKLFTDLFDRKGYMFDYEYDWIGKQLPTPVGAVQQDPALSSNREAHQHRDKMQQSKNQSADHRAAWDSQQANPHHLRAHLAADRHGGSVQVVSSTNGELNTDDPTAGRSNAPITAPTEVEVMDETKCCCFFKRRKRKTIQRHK
From the text: (§1) We assessed the selectivity of members of this scaffold using the KINOMEscan methodology across a near comprehensive panel of 442 kinases [[18,27]].

[2] = target: T2, panel of 442 kinases (Homo sapiens, UniProt Q9UEE5)
T2 construct: purchased KINOMEscan
T2 sequence (Q9UEE5 1-414): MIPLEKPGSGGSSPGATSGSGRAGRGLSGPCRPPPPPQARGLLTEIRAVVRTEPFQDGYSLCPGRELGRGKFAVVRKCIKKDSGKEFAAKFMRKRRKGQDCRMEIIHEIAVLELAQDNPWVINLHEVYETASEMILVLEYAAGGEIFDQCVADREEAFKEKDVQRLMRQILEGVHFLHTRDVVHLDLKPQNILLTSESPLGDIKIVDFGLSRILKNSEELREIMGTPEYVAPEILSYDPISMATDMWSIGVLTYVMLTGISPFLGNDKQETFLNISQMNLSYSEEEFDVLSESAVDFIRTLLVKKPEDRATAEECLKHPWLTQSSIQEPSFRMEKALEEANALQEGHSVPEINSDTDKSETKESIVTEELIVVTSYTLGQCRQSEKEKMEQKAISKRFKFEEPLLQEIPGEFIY
From the text: as §1

[3] = target: T3, panel of 442 kinases (Homo sapiens, UniProt Q8IU85)
T3 construct: purchased KINOMEscan
T3 sequence (Q8IU85 whole entry): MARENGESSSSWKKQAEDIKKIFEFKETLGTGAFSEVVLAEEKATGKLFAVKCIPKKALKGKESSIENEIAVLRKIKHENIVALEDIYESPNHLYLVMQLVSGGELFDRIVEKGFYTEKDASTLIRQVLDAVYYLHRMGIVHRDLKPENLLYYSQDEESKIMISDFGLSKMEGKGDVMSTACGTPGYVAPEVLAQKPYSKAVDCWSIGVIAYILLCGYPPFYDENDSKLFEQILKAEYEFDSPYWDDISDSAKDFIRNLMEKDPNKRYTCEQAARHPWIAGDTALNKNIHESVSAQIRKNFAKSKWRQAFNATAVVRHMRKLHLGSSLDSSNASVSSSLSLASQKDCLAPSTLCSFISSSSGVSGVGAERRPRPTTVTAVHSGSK
From the text: as §1

| SMILES | KINOMEscan: CSNK1G3 [1] | KINOMEscan: DRAK1 [2] | KINOMEscan: CAMK1D [3] |
| --- | --- | --- | --- |
| COc1cc(C(=O)N2CCC(N3CCN(C)CC3)CC2)ccc1Nc1ncc2c(n1)N(C1CCCC1)c1ccccc1C(=O)N2C [Compound 25, 11-cyclopentyl-2-((2-methoxy-4-(4-(4-methylpiperazin-1-yl)piperidine-1-carbonyl)phenyl)amino)-5-methyl-5H-benzo[e]pyrimido[5,4-b][1,4]diazepin-6(11H)-one] | 96 | 100 | 77 |
| COc1cc(C(=O)N2CCC(N3CCN(C)CC3)CC2)ccc1Nc1ncc2c(n1)N(C)c1ccccc1C(=O)N2C [15 (LRRK2-IN-1)] | 93 | 100 | 69 |
| CCOc1cc(C(=O)N2CCC(N3CCN(C)CC3)CC2)ccc1Nc1ncc2c(n1)N(C1CCCC1)c1ccccc1C(=O)N2C [Compound 26] | 91 | 100 | 61 |
